Test results reported in US20080118480A1, “Methods and Compositions for Directing Migration of Neural Progenitor Cells” (IMCLONE SYSTEMS INCORPORATED, priority 2003, published 2008).
Entries after “also recorded” stand apart in the source; their conditions may differ.

Tests used:
Assay type in all cases: cell-based, rat
[1] = system: subventricular zone (SVZ) explants; experiment: Migration of neural progenitor cells from SVZ explants in collagen matrix
Source text: The frontal lobes of the brains of one-day-old Sprague-Dawley rat pups (Size, Zurich, Switzerland) were isolated and cut into 300 μm thick coronal sections with a McIllwain tissue chopper. From these slices the anterior part of the subventricular zone (SVZ) was microdissected. The SVZ explants were embedded in a collagen matrix and cultured for 7 days in chemically-defined serum-free medium (50% Dulbecco's modified Eagle's medium [Gibco, Berlin, […]], 50% F12, HEPES, Tris-HCl, and complemented with transferrin human 20 μg/ml, putrescine 100 μM, sodium selenite 30 nM, triiodothyronin 1 nM, docosahexaenoic acid 0.5 μg/ml, arachidonic acid 1 μg/ml, insulin 60 U/l) under 5% CO2. The medium was changed every 3rd day. For co-culture experiments, SVZ explants were cultured in the presence of murine C2C12 myoblasts that had been engineered to secret […] et al., 2001). C2C12 cells were suspended in a drop of collagen matrix which was placed at a distance of approximately 1,000 μm from the SVZ explant. As a control, mock-transfected cells of the same origin were placed into the collagen matrix in a similar manner and at the same distance, but on the opposite side of the explant. Cell migration was assessed at the end of the 7th day in culture. Three categories were established: 1, no migration: no or only a few cells emigrated from the explants; 2, symmetrical migration: numerous cells had left the explants, the distance of the migrating front of the cells exceeded 50 μm, no directionality of migration; 3, asymmetrical or directional migration: when the distance of the migrating front were at least twice that on the other side and exceeded 50 μm.

[2] = system: neural progenitor cells; experiment: Dunn chamber chemotaxis / chemokinesis of neural progenitor cells
Description: The SVZ was dissected from coronal slices of newborn rat brains, dissociated mechanically and trypsinized according to methods known in the art (See Lim et al. “Noggin antagonizes BMP signaling to create a niche for adult neurogenesis, Neuron, 28: 713-726 (2000), which is incorporated by reference herein). SVZ progenitors were purified using percoll gradient centrifugation according to methods known in the art (See Lim et al., 2000) and seeded onto matrigel (0.24 mg/cm^2)- or laminin-coated coverslips. Isolated cells were allowed to grow in Neurobasal medium supplemented with 20 ng/ml FGF-2, 1×B27, 2 mM […], 1 mM sodium pyruvate, 2 mM N-acetyl-cysteine, and 1% penicillin-streptomycin. Cultures were fed every three days with fresh medium containing 20 ng/ml FGF-2.
[…] Cell Sci., 99:769-775 (1991); Allen et al., “A role for Cdc42 in macrophage chemotaxis,” J. Cell. Biol, 141:1147-1157 (1998), both of which are incorporated by reference herein). Recombinant human VEGF-CΔNΔC (Dr. M. Skobe, Cancer Center, Mount Sinai Medical Center, New York) was used in some experiments. The Dunn chamber is made from a Helber bacteria counting chamber by grinding a circular well in the central platform to leave a 1 mm wide annular bridge between the inner and the outer well. Chemoattractants added to the outer well of the device will diffuse across the bridge to the inner blind well of the chamber and form a gradient. This apparatus allows one to determine the direction of migration in relation to the direction of the gradient.
Coverslips with cells were inverted onto the chamber and cell migration was recorded through the annular bridge between the concentric inner and outer wells, and a period of 2 hours was chosen to assess cell migration. In these studies, a systematic sampling was applied and all cells within the migration region of the chamber were recorded and analyzed. Data were recorded every 10 minutes using a ZEISS 10× objective via a HAMAMATSU CCD video camera using Openlab software.
[…] For chemokinesis experiments, VEGF (20 ng/ml) or FGF-2 (20 ng/ml) was added to both outer and inner wells of the Dunn chamber.
Directionality of cell movement was analyzed using scatter diagrams of cell displacement. The diagrams were oriented so that the position of the outer well of the chamber was vertically upwards (y direction). Each point represents the final positions of the cells at the end of the recording period where the starting point of migration is fixed at the intersection of the two axes.
To determine the efficiency of forward migration during the 2-hour recording period, each cell's forward migration index (FMI) was calculated as the ratio of forward progress (net distance the cell progressed in the direction of VEGF source) to the total path length (total distance the cell traveled through the field) (Foxman et al., 1999). FMI values were negative when cells moved away from the source of VEGF. The cell speed was calculated for each lapse interval recorded during the 2-hour period.

[3] = system: VEGFR-2; experiment: RNase protection assay of VEGF receptor mRNA expression; settings: 12 hours starvation of FGF-2 versus cells in FGF-2
Description: (§1) Neural progenitor cells at 6 days of culture in FGF-2 or after starvation of FGF-2 for 12 hours were used for RNA preparation. Total cellular RNA was purified using Trizol reagent (Invitrogen). RNase protection assays were performed using cRNA probes for rat VEGFR1 and VEGFR2 as described in Pepper et al. (2000).

[4] = system: VEGFR-1; experiment: as above; settings: 12 hours starvation of FGF-2 versus cells in FGF-2
Description: as §1

[5] = system: VEGFR-2; experiment: Immunoprecipitation and Western blot of VEGFR-2 protein
Description: Neural progenitor cells from the normal cultures in FGF-2 or from cultures starved of FGF-2 for 12 hours were lysed and VEGFR-2 protein was immunoprecipitated from cell lysates with a polyclonal antibody (sc-504; Santa Cruz Biochemicals, Santa Cruz, Calif.) recognizing amino aids 1158 to 1345 in the mouse VEGFR2 carboxy terminus. Western blot was performed with a polyclonal anti-VEGFR-2 antibody (sc-315; Santa Cruz Biochemicals) recognizing the mouse carboxy terminal amino acids 1348 to 1367.

Row | Substance | explants with no significant cell migration ([1]; application of VEGF in the absence of FGF-2) | directionality of migration under chemokinesis conditions ([2]; VEGF (20 ng/ml) in both inner and outer wells, FGF-2 present) | forward migration index (FMI) versus FGF-2 gradient or chemokinesis ([2]; VEGF gradient in the presence of FGF-2, 2-hour recording) | migration speed versus FGF-2 gradient or chemokinesis ([2]; VEGF gradient in the presence of FGF-2, mean over 2 hours) | chemotaxis in a VEGF gradient after FGF-2 starvation ([2]; cells at 5 days starved of FGF-2 for 12 hours, then VEGF gradient) | chemotaxis of neural progenitor cells in a VEGF gradient ([2]; gradient established with 200 ng/ml VEGF in outer well, 20 ng/ml FGF-2 in both wells, day 6 cells, 2-hour recording) | attractive effect on different coating matrices ([2]; laminin-, poly-L-lysine- or matrigel-coated coverslips) | explants with migrating cells symmetrically distributed ([1]; FGF-2 (20 ng/ml), co-cultured with mock-transfected cells) | explants with symmetric migration ([1]; application of VEGF and FGF-2 together or FGF-2 alone) | level of VEGFR-2 transcripts after FGF-2 starvation [3] | level of VEGFR-1 transcripts after FGF-2 starvation [4] | VEGFR-2 protein expression in the presence of FGF-2 ([5]; cultured in FGF-2) | VEGFR-2 protein expression in the absence of FGF-2 ([5]; starved of FGF-2 for 12 hours) | chemotactic response to VEGF after re-addition of FGF-2 ([2]; 12-hour FGF-2 starvation, then 8-hour re-incubation with FGF-2, VEGF gradient) | chemotactic effect of FGF-2 ([2]; FGF-2 gradient, whether or not VEGF was present)
1 | VEGF | 4/4 | no clear preference for displacement | significantly greater | significantly greater | lose their chemotactic response; also recorded: failed to undergo chemotaxis | clear directionality of migration; also recorded: strong positive chemotaxis; also recorded: migrated efficiently toward the source of VEGF | similar |  |  |  |  |  |  |  | 
2 | FGF-2: fibroblast growth factor-2 (FGF-2), used at 20 ng/ml in culture medium |  |  |  |  |  |  |  | 10/10 | 12/12 | fivefold decrease | fivefold decrease | substantial expression | little to no expression | resume their chemotactic response; also recorded: rescued | no chemotactic effect
